Experiment: passive permeability, PAMPA, ADME assay (AID 1508612)
Settings: pH 7.4, 30.0 min, 50.0 µM

| Structure (SMILES) | Papp |
| --- | --- |
| NC(=O)C1CCN(c2nnc(-c3ccc4c(c3)OCCCO4)s2)CC1 | 83.8 ×10⁻⁶ cm/s |
| O=c1c2c([nH]c3ccc(Br)cc13)CCCC2 | 62.4 ×10⁻⁶ cm/s |
| CC(C=CC(=O)NO)=C[C@@H](C)C(=O)c1ccc(N(C)C)cc1 | 335 ×10⁻⁶ cm/s |
| Clc1ccccc1-c1nccc(-n2ccnc2)n1 | > 1000 ×10⁻⁶ cm/s |
| O=C(O)c1ccncc1Nc1nn(CCN2CCC(F)(F)CC2)c2ccc(F)cc12 | 1.2 ×10⁻⁶ cm/s |
| CC(C)(C)c1ccc(-c2csc(N3CCC(C(N)=O)CC3)n2)cc1 | 370 ×10⁻⁶ cm/s |
| COc1ccc(-c2ccc3ncc(Nc4ccncc4)n3n2)cc1OC | 763 ×10⁻⁶ cm/s |
| COc1c(C)c2c(c(O)c1C/C=C(\C)CCC(=O)OCCN1CCOCC1)C(=O)OC2 | 613 ×10⁻⁶ cm/s |
| CN1CCN(c2ccc(Nc3nc(-c4ccncc4)nc4ccccc34)cc2F)CC1 | > 1000 ×10⁻⁶ cm/s |
| COc1cc(C(=O)N2CCN(c3cc(Cl)ccc3Cl)CC2)cc(OC)c1OC | > 1000 ×10⁻⁶ cm/s |
| Cc1ccc2nc(NC3=NC(c4[nH]ncc4Cl)C4=C(CCCC4=O)N3)oc2c1 (stereo unspecified) | 997 ×10⁻⁶ cm/s |
| CC(=O)Nc1ccc(S(=O)(=O)Nc2nccs2)cc1 | < 1 ×10⁻⁶ cm/s |
| O=c1[nH]c(C2CCN(CC3CCCCC3)CC2)nn1Cc1ccccc1 | < 1 ×10⁻⁶ cm/s |
| CCOC(=O)C1CCN(C(=O)C2(NC(=O)Nc3ccccc3Cl)CCC2)CC1 | 266 ×10⁻⁶ cm/s |
| CCOC(=O)c1ccc(-n2c(C)cc(-c3nnc4n3CCCCC4)c2C)cc1 | 353 ×10⁻⁶ cm/s |
| Cc1cc(SCc2sc(-c3ccc(C(F)(F)F)c(F)c3)nc2C)ccc1OCC(=O)O | 417 ×10⁻⁶ cm/s |
| CCOc1ccc(CCNC(=O)c2cc3cnccc3n2Cc2cccc(C)c2)cc1OCC | 184 ×10⁻⁶ cm/s |
| Fc1cc(Nc2nc(-c3ccncc3)nc3ccccc23)ccc1OC(F)(F)F | 552 ×10⁻⁶ cm/s |
| CCN(CCCO)CCCOc1ccc2c(Nc3cc(CC(=O)Nc4cccc(F)c4)[nH]n3)ncnc2c1 | 2.5 ×10⁻⁶ cm/s |
| Cc1cccc(CNc2ccc(S(=O)(=O)Nc3nccs3)cc2)c1O | 7.9 ×10⁻⁶ cm/s |

| Structure (SMILES) | Papp |
| --- | --- |
| CC(=O)c1c(C)[nH]c(C(=O)Nc2cccc([S+](=O)([O-])Nc3ccc(C#N)cc3)c2)c1C | 178 ×10⁻⁶ cm/s |
| Fc1cc(Nc2nc(-c3ccncc3)nc3ccccc23)ccc1-c1cncnc1 | 7.26 ×10⁻⁶ cm/s |
| CC(=O)N1CCN(c2ccc(OCc3nn(C)c(C)c3-c3cccc4c(CCCOc5cc(C)c(Cl)c(C)c5)c(C(=O)O)n(Cc5cccnc5)c34)cc2)CC1 | 370 ×10⁻⁶ cm/s |
| Cc1ccc(-c2ccc(CNc3nc(-c4ccccc4C(C)C)ncc3C)cc2)cn1 | 824 ×10⁻⁶ cm/s |
| COc1cc2c(cc1OCCCN1CCCC1)N=C(N)C21CCC1 | 6.08 ×10⁻⁶ cm/s |
| CC(C)Oc1ccc(C(=O)Nc2ccc3c(c2)CCCN3C(=O)c2cccs2)cc1 | 491 ×10⁻⁶ cm/s |
| CCOC(=O)C1CCN(C(=O)C2(NC(=O)Nc3ccccc3Cl)CCCC2)CC1 | 229 ×10⁻⁶ cm/s |
| Cc1ccc(-c2ccnc(N3CCC(C(N)=O)CC3)n2)cc1 | 577 ×10⁻⁶ cm/s |
| Cc1ccc(NC(=O)NCC2CCN(Cc3cccc(Cl)c3)CC2)cc1Cl | 746 ×10⁻⁶ cm/s |
| O=S(=O)(Nc1ccc(S(=O)(=O)Nc2nccs2)cc1)c1ccc2ccccc2c1 | 7.37 ×10⁻⁶ cm/s |
| C[C@@]1(C(=O)Nc2ccc(F)nc2)CCCN1c1nc(Nc2cc(C3CC3)[nH]n2)c2cccn2n1 | 780 ×10⁻⁶ cm/s |
| c1cn2cc(-c3ccc4cn[nH]c4c3)nc(Nc3ccc(N4CCOCC4)cc3)c2n1 | 391 ×10⁻⁶ cm/s |
| N#CC1(c2ccc(NC(=O)c3cccnc3NCc3ccncc3)cc2)CCCC1 | > 1000 ×10⁻⁶ cm/s |
| CC(C)c1ccccc1-c1ncc(F)c(NC(C)(C)c2ccc(-n3ccnn3)cc2)n1 | 672 ×10⁻⁶ cm/s |
| S=C(NCCCc1cnc[nH]1)NCCCN(Cc1ccc(Cl)c(Cl)c1)c1ccc(Br)cn1 | 14 ×10⁻⁶ cm/s |
| COc1ccc(Nc2cnc3ccc(-c4ccc(OC)c(OC)c4)nn23)cc1 | 396 ×10⁻⁶ cm/s |
| CCN(CC)S(=O)(=O)c1ccc(N2CCCC2)c(NS(=O)(=O)c2ccccc2)c1 | 396 ×10⁻⁶ cm/s |
| O=C(CCCCCCC(=O)Nc1ccccc1)NO | 63.4 ×10⁻⁶ cm/s |
| O=C1CN(C(=O)CCC(=O)N2CCc3c(nc4cc(-c5ccccc5)[nH]n4c3=O)C2)c2ccccc2N1 | < 1 ×10⁻⁶ cm/s |
| COc1cncc(Nc2ncc(-c3cccc(N(C)C)c3)c3c2OCC3)c1 | < 1 ×10⁻⁶ cm/s |

| Structure (SMILES) | Papp |
| --- | --- |
| CSc1ccccc1N1CCN(CCCCCC(=O)NC2CCCc3ccccc32)CC1 (stereo unspecified) | > 1000 ×10⁻⁶ cm/s |
| O=C(c1cnc(N2CCCCC2)c2ccccc12)N1CCN(c2ccccn2)CC1 | > 1000 ×10⁻⁶ cm/s |
| O=C(Nc1ccc(-c2ccccc2)cc1)[C@H](Cc1ccc(O[S+](=O)([O-])c2cccc3cnccc23)cc1)N[S+](=O)([O-])c1cccc2cnccc12 | 18.5 ×10⁻⁶ cm/s |
| O=C1C(SCCO)=C(SCCO)C(=O)c2ccccc21 | 108 ×10⁻⁶ cm/s |
| Nc1ccc(-c2cccc3c(=O)cc(N4CCOCC4)oc23)cc1 | 65.7 ×10⁻⁶ cm/s |
| CC(C)CCNC(=O)[C@H](CC(C)C)NC(=O)[C@H]1O[C@@H]1C(=O)O | < 1 ×10⁻⁶ cm/s |
| O=C1CCCC2=C1C(c1[nH]ncc1Cl)N=C(Nc1nc3c(Br)cccc3o1)N2 (stereo unspecified) | 531 ×10⁻⁶ cm/s |
| O=C(Cc1ccc(Cl)c(Cl)c1)Nc1ccc(S(=O)(=O)Nc2cccc(O)c2)cc1 | 15.6 ×10⁻⁶ cm/s |
| Fc1cccc(Nc2nc(-c3ccncc3)nc3ccccc23)c1F | 799 ×10⁻⁶ cm/s |
| O=C(Cc1c[nH]c2ncc(-c3ccc(Cl)cc3)cc12)NCc1cccnc1 | > 1000 ×10⁻⁶ cm/s |
| Nc1nc2c(s1)C(c1cccc(F)c1F)CC(=O)N2 (stereo unspecified) | 9.86 ×10⁻⁶ cm/s |
| CCC(CC)c1cc([C@H]2CN3CC[C@H]2C[C@@H]3CNC(C)=O)nc(-c2ccncc2)n1 | 994 ×10⁻⁶ cm/s |
| O=C([C@H](Cc1ccc(O[S+](=O)([O-])c2cccc3cnccc23)cc1)N[S+](=O)([O-])c1cccc2cnccc12)N1CCN(Cc2ccccc2)CC1 | 399 ×10⁻⁶ cm/s |
| NC(=O)C1CCN(c2nnc(-c3ccc(Br)cc3)s2)CC1 | 525 ×10⁻⁶ cm/s |
| CCOC(=O)c1ccc(NC(=O)N2Cc3[nH]cnc3C[C@H]2c2nc(C(C)C)no2)cc1 | 113 ×10⁻⁶ cm/s |
| COc1ncccc1-c1cc2c(ccn2CC2CCN([S+](C)(=O)[O-])CC2)c(N2CCOCC2)n1 | > 1000 ×10⁻⁶ cm/s |
| Cc1ccc(NS(=O)(=O)c2ccc3c(c2)NC(=O)CO3)cc1C | 706 ×10⁻⁶ cm/s |
| CN1CCCC1CCOC(c1cc2nccc(C(=O)O)c2[nH]1)c1ccccc1Cl (stereo unspecified) | 1.1 ×10⁻⁶ cm/s |
| Fc1ccccc1Nc1nc(-c2ccncc2)nc2ccccc12 | 839 ×10⁻⁶ cm/s |

Second part, the compound after the results:

| Papp | Structure (SMILES) |
| --- | --- |
| 5.92 ×10⁻⁶ cm/s | Cc1ccc(S(=O)(=O)Nc2cnccc2C(=O)Nc2nc(-c3ccc(-c4ccccc4)cc3)cs2)cc1 |
| < 1 ×10⁻⁶ cm/s | COc1ccc(-n2nc(C3CCCN(C(=O)c4ccccc4)C3)[nH]c2=O)cc1 (stereo unspecified) |
| 37.9 ×10⁻⁶ cm/s | CCC(Sc1nc2ccccc2c2nc(CCc3c(C)n[nH]c3C)nn12)C(=O)Nc1ccc(F)cc1 (stereo unspecified) |
| > 1000 ×10⁻⁶ cm/s | CCOC(=O)CCNc1cc(N2CCc3ccccc3CC2)nc(-c2ccccn2)n1 |
| 4 ×10⁻⁶ cm/s | O=C(O)c1ccnc2cc(-c3nc4ccccc4n3CCN3CCCCC3)sc12 |
| 317 ×10⁻⁶ cm/s | COc1ccccc1-c1cc2c(ccn2C)c(C(=O)NCC2CCN(C)C(=O)C2)n1 (stereo unspecified) |
| 723 ×10⁻⁶ cm/s | CNc1oc(-c2cccc3ccccc23)nc1C#N |
| > 1000 ×10⁻⁶ cm/s | CN1C(=O)c2ccccc2[S@](=O)c2ccc(C(=O)NCc3ccc(Br)cc3)cc21 |
| 593 ×10⁻⁶ cm/s | COc1cc(C(=O)NC2CCCc3c2[nH]c2c(Cl)cccc32)cc(OC)c1OC (stereo unspecified) |
| 103 ×10⁻⁶ cm/s | COC(=O)CNC(=O)c1nc(-c2ccc(Cl)nc2)c2cnccn12 |
| 7.8 ×10⁻⁶ cm/s | COc1ccccc1C(=O)Nc1nc2nc(C)cc(=O)n2[nH]1 |
| 83.2 ×10⁻⁶ cm/s | O=C(Nc1nc(-c2ccccc2)cs1)c1ccncc1NS(=O)(=O)c1cccs1 |
| 302 ×10⁻⁶ cm/s | COc1ccccc1NC(=O)C1=C(C)Nc2c(C(=O)Nc3ccc(F)cc3)cnn2C1c1ccc(Cl)cc1 (stereo unspecified) |
| 415 ×10⁻⁶ cm/s | N#Cc1ccccc1CSc1nc2ncc(Br)cc2[nH]1 |
| 35.7 ×10⁻⁶ cm/s | COc1ccc(NC(=O)c2[nH]c(C)c(C(C)=O)c2C)cc1S(=O)(=O)Nc1ccc(C#N)cc1 |
| 176 ×10⁻⁶ cm/s | O=C(Nc1ccc(-c2nc3cc(NC(=O)c4ccccc4Cl)ccc3o2)cc1)c1ccccc1Cl |
| 355 ×10⁻⁶ cm/s | Cc1cccc(C)c1C(=O)Nc1cccc([S+](=O)([O-])N(C)C)c1 |
| 905 ×10⁻⁶ cm/s | CNc1nccc(-c2cccc3ccccc23)n1 |
| > 1000 ×10⁻⁶ cm/s | COc1cc(Nc2nc(-c3ccncc3)nc3ccccc23)ccc1NS(C)(=O)=O |
| > 1000 ×10⁻⁶ cm/s | CC(C)COc1ccc(-c2ccc(=O)n(CC(=O)NCCc3ccccc3)n2)cc1 |
| > 1000 ×10⁻⁶ cm/s | CCOc1ccc(CCNC(=O)c2cc3ccccc3n2Cc2cc(C)cc(C)n2)cc1OCC |
| 802 ×10⁻⁶ cm/s | C#CCNC(=O)c1nc(-c2ccc(Cl)nc2)c2ccccn12 |
| 25.8 ×10⁻⁶ cm/s | COc1cccc(CNc2ccc(S(=O)(=O)Nc3nc(C)c(C)s3)cc2)c1O |
| 799 ×10⁻⁶ cm/s | COc1ccc(C2Nc3ccccc3C(=O)N2Cc2ccco2)cc1 (stereo unspecified) |

| Papp | Structure (SMILES) |
| --- | --- |
| 427 ×10⁻⁶ cm/s | CCCN1C(CC(C)C)=NS(=O)(=O)c2cc(NC(=O)c3ccco3)ccc21 |
| 123 ×10⁻⁶ cm/s | O=C1CCC(CNC(=O)c2nc(-c3ccccc3)cc3[nH]ccc23)N1 (stereo unspecified) |
| 861 ×10⁻⁶ cm/s | Cc1ccc(S(=O)(=O)NCCC(=O)Nc2nc(-c3ccccc3)cs2)cc1 |
| 450 ×10⁻⁶ cm/s | Cc1cc(C)nc(NC(=S)N2CCN(c3ccncc3)CC2)c1 |
| > 1000 ×10⁻⁶ cm/s | COc1ccc(OC)c(Nc2c3c(nc4ccccc24)CCC3)c1 |
| 7.34 ×10⁻⁶ cm/s | COc1ccc(CCn2c(N)cc(=O)[nH]c2=S)cc1OC |
| > 1000 ×10⁻⁶ cm/s | Cc1ccc(NC(=O)c2c(N3CCCC3=O)c3cc(C)ccc3n2C)c(C)c1 |
| 666 ×10⁻⁶ cm/s | Cc1cnc(N2CCC(C(N)=O)CC2)nc1-c1cccc(N(C)C)c1 |
| 33.5 ×10⁻⁶ cm/s | COc1ncc(-c2n[nH]c3c2CC(=O)N(c2ccccc2)C3)cn1 |
| < 1 ×10⁻⁶ cm/s | CCCCOc1ccc(CNC(=O)c2cc3n(n2)CCCN(Cc2ccc(C)cc2)C3=O)cc1 |
| 440 ×10⁻⁶ cm/s | COc1c(Cl)cc2c([nH]c3cnccc32)c1NC(=O)c1cccnc1C |
| > 1000 ×10⁻⁶ cm/s | COC(=O)CNC(=O)c1nc(-c2ccc(Cl)nc2)c2ccccn12 |
| 107 ×10⁻⁶ cm/s | COc1ccc(Nc2nc(-c3ccncc3)nc3ccccc23)cc1F |
| 62 ×10⁻⁶ cm/s | CCc1oc2ccccc2c1C(=O)c1cc(Br)c(O)c(Br)c1 |
| > 1000 ×10⁻⁶ cm/s | Cc1ccc2nc(-c3ccccn3)c(Nc3ccccc3C)n2c1 |
| 214 ×10⁻⁶ cm/s | COc1ccc(-c2nc3sc(CCNC(=O)C(C)(C)C)c(C)n3n2)cc1 |
| > 1000 ×10⁻⁶ cm/s | Cc1ccnc(NC(=S)N2CCN(c3ccc(Cl)c(Cl)c3)CC2)c1 |
| 11.8 ×10⁻⁶ cm/s | Cc1ccc(-c2cc(C(=O)Nc3cccc(S(N)(=O)=O)c3)c3ccccc3n2)cc1C |
| 16.5 ×10⁻⁶ cm/s | Cc1nc2ccc(C(=O)N3CCC4(CC3)CC(=O)c3c(cnn3C(C)C)C4)cc2[nH]1 |
| > 1000 ×10⁻⁶ cm/s | Cc1nc(N2CCN(c3ccccn3)CC2)c2c(C)c(C(=O)Nc3ccc(F)cc3Cl)sc2n1 |
| 737 ×10⁻⁶ cm/s | COc1ccc(NS(=O)(=O)c2ccc(C)c(C(=O)Nc3ccc4oc(C)nc4c3)c2)cc1 |
| > 1000 ×10⁻⁶ cm/s | COC(=O)CNC(=O)c1nc(-c2ccccc2OC)c2ccccn12 |
| < 1 ×10⁻⁶ cm/s | Cc1ccc(S(=O)(=O)Nc2cnccc2C(=O)Nc2nc(C(=O)O)cs2)cc1 |
